Two compounds from PMC10606064, “2-Aminothiazole-Flavonoid Hybrid Derivatives Binding to Tau Protein and Responsible for Antitumor Activity in Glioblastoma” (International Journal of Molecular Sciences, 2023) can be followed below.

Each structure is given as a SMILES string.

Assay [1] deals with SK-N-SH neuroblastoma cells. As to the kind of experiment: MTT cell viability assay, SK-N-SH. In kind it is cell-based. As to conditions: Homo sapiens, 72 h, mean ± SEM, read-out: IC50 (metabolic activity). On the procedure: (§1) Cells harvested from sub-confluent monolayers were seeded at 15,000 cells per mL in a 96-well microtiter plate (Cambridge Technology, Labège, France) and cultured for 24 h under standard conditions. Standard medium was then replaced by fresh medium containing no drugs or compounds at different concentrations. The surviving cells were quantified after 72 h by the MTT assay, according to the manufacturer’s instructions. Briefly, 20 µL of 3-(4,5-diMethylThiazol-2-yl)-2,5diphenyl Tetrazolium bromide (MTT) solution at 5 mg.mL^−1 was added to cells for 3 h at 37 °C. The supernatant was discarded and replaced by 100 µL of dimethyl sulfoxide to dissolve formazan crystals. The absorbance was then read at 600 nm by spectrophotometry. For all concentrations of a given compound, cell viability was expressed as the percentage of the ratio between the mean absorbance of treated cells and the mean absorbance of untreated cells. Three independent experiments were performed, and the data were expressed as percentage of survival (using the untreated cells as 100%) and subjected to statistical analysis (n = 3). The IC50 was calculated using the Chou and Talalay method.

In assay [2] the test system is T98G glioblastoma cells. In words: MTT cell viability assay, T98G. As to conditions: Homo sapiens, 72 h, mean ± SEM, read-out: IC50 (metabolic activity). The class given is cell-based. Here is the method:
as §1

The subject of assay [3] is U87 glioblastoma cells. In words: MTT cell viability assay, U87. As to conditions: for IC50: Homo sapiens, U87, 72 h, MTT, mean ± SEM, read-out: IC50 (metabolic activity). The class given is cell-based, human. On the procedure: as §1
Assay [4] deals with U87 shCTRL cells. As to the kind of experiment: Cell cycle by flow cytometry (propidium iodide), U87 shCTRL. The class given is cell-based, human. As to conditions: 48 h. On the procedure:
(§2) Measurements of cell cycle from DNA content were performed by flow cytometry as described before. Briefly, 4.10^5 cells in exponential growth were seeded in 6-well plates. After 24 h, they were treated with 10 µM of compounds for 48 h. Nocodazole was used as a positive control with a concentration of 1 µM. The trypsinized cells were harvested and then centrifuged (1200 rpm, 5 min, at room temperature). The cell pellet was resuspended in 1 mL of PBS 1× at 4 °C, and then an extra 4 mL of cold PBS was added to wash the pellet. Cells were then centrifuged again (1200 rpm, 5 min, at 4 °C). To fixate the cells, the pellet was resuspended in 100 µL of cold 70% ethanol, then an additional 900 µL was added and cells were incubated for 30 min at −20 °C. After that, 9 mL of cold PBS was added, and cells were centrifuged (2000 rpm, 5 min, at 4 °C) to remove ethanol. The cell pellet was then resuspended in the staining mix containing 50 µg.mL^−1 of propidium iodide (Molecular Probes, Paris, France) and 100 µg.mL^−1 of RNAse A (Sigma-Aldrich, Saint-Quentin-Fallavier, France) in PBS for 20 min at room temperature in darkness. Samples were analyzed on a Beckman–Coulter–Gallios flow cytometer using the Kaluza for Gallios Acquisition v1.0 software. Propidium iodide was excited at 488 nm, and fluorescence was analyzed at 620 nm on channel FL-3. For the analysis, there is considerable overlap between early S phase and G1 and between late S phase and G2/M due to broadening of the distribution caused by variability in the staining of the cells and instrumental variability. Therefore, the percentages of cells in the sub-G1, G1, S, and G2/M phases of the cell cycle were calculated using the Watson et al. algorithm for cell cycle analysis in Kaluza for Gallios Analysis v2.1 software. The software automatically adjusted gates based on PI median fluorescence intensity of the cells and their frequency among total cells. The number of cells in each phase was divided by the total number of analyzed cells, and the values were reported as percentage of the total cells for each cell cycle phase.

In assay [5] the test system is U87 shCTRL cells. As to the kind of experiment: MTT cell viability assay, U87 shCTRL (expressing Tau). The class given is cell-based, human. Particulars: for IC50: Homo sapiens, U87 shCTRL, 72 h, MTT, mean ± SEM, read-out: IC50 (metabolic activity). Here is the method:
(§3) All cell lines were purchased from ATCC, Gaithersburg, MD, USA. Cells from human glioblastoma (clones U87 wt, HTB-14; U118, HTB-15; U251, HTB-12; U138, HTB-16), neuroblastoma (clone SK-N-SH, HTB-11), and colorectal adenocarcinoma (clone Caco-2, HTB-37) were routinely grown at 37 °C in a humidified atmosphere containing 5% CO2. Cells were maintained by regular passages in complete media supplemented with 10% FBS, 2mM of L-glutamine, 100 U/mL of penicillin, and 50 U/mL of streptomycin (Invitrogen, Paris, France). For U87 wt, U251, U138, and SK-N-SH cells, the medium consisted of EMEM (Lonza, Levallois Perret, France). U118 and Caco-2 lines were maintained in DMEM. The U87 wt-derived lines, U87 shCTRL, and U87 shTau2 cells were continuously maintained in complete EMEM medium supplemented with 0.4 µg/mL of puromycin. The shRNA sequences and the protocol of clone selection and Tau downregulation were previously described in [20]. For Tau expression rescue, the U87 shCTRL and U87 shTau cells were seeded two days prior to experiments at 4.10^5 cells per 60 mm dish in 6 mL of complete medium. Cells were transfected using LipofectAmine 2000 according to Invitrogen instructions and 8 µg EGFP-free plasmid constructs (for U87 shCTRL) and EGFP-hTau40 plasmid constructs (for U87 shTau) were used in total. One day prior to experiments, all cells were plated in a 96-well microtiter plate to prepare for viability assays. Cells were free from mycoplasma as determined by mycoalert tests (Lonza).
as §1

In assay [6] the test system is U87 shTau cells. As to the kind of experiment: MTT cell viability assay, U87 shTau (Tau-depleted). The class given is cell-based. Particulars: Homo sapiens, 72 h, mean ± SEM, read-out: IC50 (metabolic activity). Here is the method:
as §3, §1

In assay [7] the test system is U87 shTau cells. As to the kind of experiment: Cell cycle by flow cytometry (propidium iodide), U87 shTau. In kind it is cell-based, human. As to conditions: 48 h. On the procedure:
as §2

`Nc1nc2ccc3oc(-c4cccc(Oc5ccccc5)c4)cc(=O)c3c2s1` [Compound 2, 2-amino-7-(3-phenoxyphenyl)-9H-chromeno [6,5-d]thiazol-9-one]: the IC50 came out at 1200 ± 300 nM in assay [1]; 2800 ± 2400 nM in assay [2]; 1900 ± 700 nM in assay [3]; 1400 ± 500 nM in assay [5]; 4700 ± 300 nM in assay [6]. Besides, in assay [3] (U87 cell line), the “IC50 value fold lower than 1” value was “up to 10 fold”. Also, the “effect on cell cycle progression” value in assay [4] (10 µM) and in assay [7] (10 µM) was “no significant effect on cell cycle progression” in each case. The “activity against U87 shCTRL cells compared to U87 shTau cells” value in assay [5] (ratio of IC50 values) was found to be 3 times.
For the compound `Nc1nc2ccc3oc(C(=O)O)cc(=O)c3c2s1` [Compound 5], the IC50 in assay [1], in assay [2], in assay [3], in assay [5] and in assay [6] was greater than 100000 nM each time. Further, the “%G1 (cells in G1 phase)” value in assay [4] (compounds 10 µM, NOC 1 µM) turned out to be 53 ± 4%; in assay [7] (compounds 10 µM, NOC 1 µM), 62 ± 5%. Further, the “%G2/M (cells in G2/M phase)” value is 34 ± 5% in assay [4] (compounds 10 µM, NOC 1 µM) and 25 ± 1% in assay [7] (compounds 10 µM, NOC 1 µM).
